ChEMBL document CHEMBL3885881, “DrugMatrix”

Species on record: Rattus norvegicus
Test: DrugMatrix - Regimen: Daily Repeat
Assay type: toxicity, organism-based, Sprague-Dawley
Parameters: regimen Daily Repeat, gender Male, age 6-8 weeks
Details: in vivo, po, route oral GAVAGE, […]; for ABSOLUTE BASOPHIL / ABSOLUTE EOSINOPHIL / ABSOLUTE LYMPHOCYTE / ABSOLUTE MONOCYTE / BASOPHIL / EOSINOPHIL / ERYTHROCYTE COUNT / HEMATOCRIT / HEMOGLOBIN / LEUKOCYTE COUNT / LYMPHOCYTE / MEAN CORPUSCULAR HEMOGLOBIN / MEAN CORPUSCULAR HEMOGLOBIN CONCENTRATION / MEAN CORPUSCULAR VOLUME / MONOCYTE / NEUTROPHIL / PLATELET COUNT: tissue Blood
[1] = 0 mg/kg, 72 h, tissue Plasma, dose level Control, time 3 day
[2] = 0 mg/kg, 120 h, dose level Control, time 5 day
[3] = 0 mg/kg, 120 h, tissue Plasma, dose level Control, time 5 day
[4] = 0 mg/kg, dose level Control, time 14 day
[5] = 0 mg/kg, tissue Plasma, dose level Control, time 14 day
[6] = 15 mg/kg, 72 h, dose level High, time 3 day

In the case of `CC(CCc1ccc(O)cc1)NCCc1ccc(O)c(O)c1` (stereo unspecified) [DOBUTAMINE], the POTASSIUM [1] is reported as 6.13 MEQ/L, the SODIUM [1] is reported as 145 MEQ/L and the “TOTAL BILIRUBIN” value [1] is reported as 0.43 mg/dL. The “TOTAL PROTEIN” value [1] was 6.7 G/DL, the “URIC ACID” value [1] was 0.83 mg/dL and the ABSOLUTE BASOPHIL [2] was 33.3 cells/µL. For the same molecule, the ABSOLUTE EOSINOPHIL [2] was 56.7 cells/µL, the ABSOLUTE LYMPHOCYTE [2] was 9220 cells/µL and the ABSOLUTE MONOCYTE [2] was 230 cells/µL. The BASOPHIL [2] was 0.3%, the EOSINOPHIL [2] was 0.5% and the “ERYTHROCYTE COUNT” value [2] was 6.62 x10E6/uL. The HEMATOCRIT [2] was 46.43%, the HEMOGLOBIN [2] was 14.3 G/DL and the “LEUKOCYTE COUNT” value [2] was 10.96 x10E3/uL. The LYMPHOCYTE [2] was 83.83%, the “MEAN CORPUSCULAR HEMOGLOBIN” value [2] was 21.57 pg and the “MEAN CORPUSCULAR HEMOGLOBIN CONCENTRATION” value [2] was 30.77 G/DL. The “MEAN CORPUSCULAR VOLUME” value [2] was 70.13 fL, the MONOCYTE [2] was 2.1% and the NEUTROPHIL [2] was 12.53%. The “PLATELET COUNT” value [2] was 1056.67 x10E3/uL, the “ALANINE AMINOTRANSFERASE” value [3] was 41.33 u/L and the ALBUMIN [3] was 4.07 G/DL. For the same molecule, the “ALKALINE PHOSPHATASE” value [3] was 603.33 u/L, the “ASPARTATE AMINOTRANSFERASE” value [3] was 80 u/L and the “BLOOD UREA NITROGEN” value [3] was 14.67 mg/dL. The “CARBON DIOXIDE” value [3] was 43 mmol/L, the CHLORIDE [3] was 104 MEQ/L and the CHOLESTEROL [3] was 88.33 mg/dL. The “CREATINE PHOSPHOKINASE” value [3] was 391.67 u/L, the CREATININE [3] was 0.47 mg/dL and the GLUCOSE [3] was 156 mg/dL. It also gave an LIPASE [3] of 10.67 u/L, a PHOSPHORUS [3] of 9.03 mg/dL and a POTASSIUM [3] of 6.1 MEQ/L. For the same molecule, the SODIUM [3] was 145.67 MEQ/L, the “TOTAL BILIRUBIN” value [3] was 0.37 mg/dL and the “TOTAL PROTEIN” value [3] was 6.53 G/DL. For the same molecule, the “URIC ACID” value [3] was 0.5 mg/dL, the ABSOLUTE BASOPHIL [4] was 73.3 cells/µL and the ABSOLUTE EOSINOPHIL [4] was 60 cells/µL. For the same molecule, the ABSOLUTE LYMPHOCYTE [4] was 12200 cells/µL, the ABSOLUTE MONOCYTE [4] was 250 cells/µL and the BASOPHIL [4] was 0.5%. The EOSINOPHIL [4] was 0.37%, the “ERYTHROCYTE COUNT” value [4] was 7.33 x10E6/uL and the HEMATOCRIT [4] was 44.3%. For the same molecule, the HEMOGLOBIN [4] was 14.77 G/DL, the “LEUKOCYTE COUNT” value [4] was 14.86 x10E3/uL and the LYMPHOCYTE [4] was 81.87%. The “MEAN CORPUSCULAR HEMOGLOBIN” value [4] was 20.2 pg, the “MEAN CORPUSCULAR HEMOGLOBIN CONCENTRATION” value [4] was 33.33 G/DL and the “MEAN CORPUSCULAR VOLUME” value [4] was 60.57 fL. For the same molecule, the MONOCYTE [4] was 1.63%, the NEUTROPHIL [4] was 14.93% and the “PLATELET COUNT” value [4] was 1101.67 x10E3/uL. The “ALANINE AMINOTRANSFERASE” value [5] was 31.67 u/L, the ALBUMIN [5] was 3.83 G/DL and the “ALKALINE PHOSPHATASE” value [5] was 430.67 u/L. The “ASPARTATE AMINOTRANSFERASE” value [5] was 87 u/L, the “BLOOD UREA NITROGEN” value [5] was 14.33 mg/dL and the “CARBON DIOXIDE” value [5] was 39 mmol/L. For the same molecule, the CHLORIDE [5] was 104 MEQ/L, the CHOLESTEROL [5] was 66 mg/dL and the “CREATINE PHOSPHOKINASE” value [5] was 441.67 u/L. For the same molecule, the CREATININE [5] was 0.7 mg/dL, the GLUCOSE [5] was 125.67 mg/dL and the “LACTATE DEHYDROGENASE” value [5] was 397.67 u/L. For the same molecule, the LIPASE [5] was 12.33 u/L, the PHOSPHORUS [5] was 9.87 mg/dL and the POTASSIUM [5] was 5.93 MEQ/L. The SODIUM [5] was 145 MEQ/L, the “TOTAL BILIRUBIN” value [5] was 0.37 mg/dL and the “TOTAL PROTEIN” value [5] was 6.27 G/DL. The “URIC ACID” value [5] was 0.67 mg/dL, the ABSOLUTE BASOPHIL [6] was 23.3 cells/µL and the ABSOLUTE EOSINOPHIL [6] was 50 cells/µL. For the same molecule, the ABSOLUTE LYMPHOCYTE [6] was 6060 cells/µL, the ABSOLUTE MONOCYTE [6] was 170 cells/µL and the BASOPHIL [6] was 0.3%. For the same molecule, the EOSINOPHIL [6] was 0.67%, the “ERYTHROCYTE COUNT” value [6] was 6.67 x10E6/uL and the HEMATOCRIT [6] was 46.03%. For the same molecule, the HEMOGLOBIN [6] was 14.2 G/DL, the “LEUKOCYTE COUNT” value [6] was 8.35 x10E3/uL and the LYMPHOCYTE [6] was 72.8%. For the same molecule, the “MEAN CORPUSCULAR HEMOGLOBIN” value [6] was 21.33 pg, the “MEAN CORPUSCULAR HEMOGLOBIN CONCENTRATION” value [6] was 30.87 G/DL and the “MEAN CORPUSCULAR VOLUME” value [6] was 69.1 fL. It also gave an MONOCYTE [6] of 2.07%.
